Results: patent US20080269343A1, “GALENIC FORMULATIONS OF ORGANIC COMPOUNDS” (priority 2004, published 2008)
Read-outs that look alike come from different tables or passages of the source.

Assay: Single-dose 300 mg pharmacokinetic study in healthy and type 2 diabetic subjects (Example 4)
Type: in vivo, human
Settings: single oral dose 300 mg; for AUC(0-t): read-out: AUC0-96
Protocol: An open label, non-randomized, single center, and parallel group single dose study in healthy and type 2 diabetic subjects was carried out. Two parallel groups, one group of 30 healthy, and one group of 30 type 2 diabetic patients, (age, weight and race matched) were enrolled, and all subjects completed the study in each group. Each subject participated in a 21-day screening period, a baseline period (Day −1), one day treatment period (Day 1) and a study completion evaluation 96 hours after the treatment.
Once eligibility had been confirmed each subject received a single oral dose of 300 mg of aliskiren (dosage form 3) on Day 1 with 96 hour sampling of pharmacokinetic (PK) parameters. Subjects were admitted to the study site at least 12 hours prior to the dosing and were confined to the clinic for at least 48 hours post-dose and were advised to come back for the rest of the PK samples collection. Subjects were to undergo a study completion evaluation on 96 hours post-dose prior to discharge from the study site.
Type 2 diabetic patients had been diagnosed with type 2 diabetes at least 1 year prior to screening, and were otherwise in good health. Healthy subjects were selected to match type 2 diabetes patients with regard to age (±5 yr) and weight (±10 kg).
Blood samples were collected to determine the pharmacokinetics following a single oral dose of 300 mg of aliskiren. Plasma concentrations of aliskiren were used to determine the pharmacokinetic parameters using non-compartmental methods, and the data are summarized in FIG. 4, and Tables 2 and 3.

[1] = Max, type 2 diabetic patients n = 30
[2] = Min, type 2 diabetic patients n = 30
[3] = human, plasma, po, 300 mg, Geometric Mean, healthy subjects n = 30
[4] = human, plasma, po, 300 mg, Geometric Mean, type 2 diabetic patients n = 30
[5] = human, plasma, po, 300 mg, Median, healthy subjects n = 30
[6] = human, plasma, po, 300 mg, Median, type 2 diabetic patients n = 30
[7] = human, plasma, po, 300 mg, arithmetic mean, healthy subjects n = 30
[8] = human, plasma, po, 300 mg, arithmetic mean, type 2 diabetic patients n = 30

## COCCCOc1cc(C[C@@H](C[C@H](N)[C@@H](O)C[C@H](C(=O)NCC(C)(C)C(N)=O)C(C)C)C(C)C)ccc1OC [aliskiren, 2(S),4(S),5(S),7(S)—N-(3-amino-2,2-dimethyl-3-oxopropyl)-2,7-di(1-methylethyl)-4-hydroxy-5-amino-8-[4-methoxy-3-(3-methoxy-propoxy)phenyl]-octanamide]
Max, healthy subjects n = 30
  AUC0-96: 4546 ng·h/mL
  AUC0-∞: 5015 ng·h/mL
  Cmax: 979 ng/mL
  Tmax: 6.00 h
[1]
  AUC0-96: 5662 ng·h/mL
  AUC0-∞: 6171 ng·h/mL
  Cmax: 1580 ng/mL
Min, healthy subjects n = 30
  AUC0-96: 425 ng·h/mL
  AUC0-∞: 482 ng·h/mL
  Cmax: 66 ng/mL
  Tmax: 0.25 h
[2]
  AUC0-96: 431 ng·h/mL
  AUC0-∞: 465 ng·h/mL
  Cmax: 80 ng/mL
  Tmax: 0.25 h
[3]
  AUC(0-inf): 1500 ng·h/mL
  AUC(0-t): 1380 ng·h/mL
human, plasma, po, 300 mg, Geometric Mean, healthy subjects n = 30, read-out: Cmax
  Cmax: 283 ng/mL
human, plasma, po, 300 mg, Geometric Mean, healthy subjects n = 30, read-out: tmax
  Tmax: 1.32 h
[4]
  AUC(0-inf): 1740 ng·h/mL
  AUC(0-t): 1590 ng·h/mL
human, plasma, po, 300 mg, Geometric Mean, type 2 diabetic patients n = 30, read-out: Cmax
  Cmax: 322 ng/mL
human, plasma, po, 300 mg, Geometric Mean, type 2 diabetic patients n = 30, read-out: tmax
  Tmax: 1.22 h
[5]
  AUC(0-inf): 1340 ng·h/mL
  AUC(0-t): 1260 ng·h/mL
human, plasma, po, 300 mg, Median, healthy subjects n = 30, read-out: Cmax
  Cmax: 278 ng/mL
human, plasma, po, 300 mg, Median, healthy subjects n = 30, read-out: tmax
  Tmax: 1.25 h
[6]
  AUC(0-inf): 1900 ng·h/mL
  AUC(0-t): 1610 ng·h/mL
human, plasma, po, 300 mg, Median, type 2 diabetic patients n = 30, read-out: Cmax
  Cmax: 328 ng/mL
human, plasma, po, 300 mg, Median, type 2 diabetic patients n = 30, read-out: tmax
  Tmax: 1 h
[7]
  AUC(0-inf): 1780 ng·h/mL
  AUC(0-t): 1640 ng·h/mL
human, plasma, po, 300 mg, arithmetic mean, healthy subjects n = 30, read-out: Cmax
  Cmax: 348 ng/mL
human, plasma, po, 300 mg, arithmetic mean, healthy subjects n = 30, read-out: tmax
  Tmax: 1.97 h
[8]
  AUC(0-inf): 2040 ng·h/mL
  AUC(0-t): 1860 ng·h/mL
human, plasma, po, 300 mg, arithmetic mean, type 2 diabetic patients n = 30, read-out: Cmax
  Cmax: 394 ng/mL
human, plasma, po, 300 mg, arithmetic mean, type 2 diabetic patients n = 30, read-out: tmax
  Tmax: 1.62 h
